Square brackets hold non-standard residues; d marks the D form. Ends that are not written are not given here. Peptide text beside a SMILES is read from it. * marks the point of attachment. pS = N[C@@H](COP(=O)(O)O)C(=O)O; Cbz = O=C(OCc1ccccc1)*
How the values were obtained:
SCF^β-TrCP1 = SCF^β-TrCP1 (Homo sapiens, UniProt Q9Y297); assay: In vitro ubiquitination assay (GST-Wee1KR substrate, immunoblotting); assay type: biochemical; conditions: immunoblots quantitated by ImageJ
Procedure: Components of SCF complex (SKP1, Cul1, Rbx1, and hemagglutinin (HA)-tagged β-TrCP) were expressed in HEK293T cells. Anti-HA antibody was added into the SCF complexes expressed HEK 293T cell lysate and rotated at 4°C for 1 h. Aliquots of this mixture were added to protein G beads and rotated at 4°C for 30 min. After washing the beads in cell lysis buffer three times, the tube was centrifuged at 20,400 × g for 5 min and the supernatant was discarded. The protein on the beads was used as recombinant SCF^β-TrCP complexes. Aliquots of SCF complexes bound on the beads were then added to ubiquitination reactions (10 mM Tris pH = 7.5, 5 mM MgCl2, 1 mM DTT, 1 mM ATP, 20 mM creatine phosphate, 0.1 mg/mL creatine kinase, 5 mM NaF, 1 mM Na3VO4, 2 mg/mL ubiquitin, 0.5 μg E1 enzyme, 2 μg E2 enzyme) in a final volume of 30 µL. Compounds of 100 µM final concentration were added to reactions, and GST-Wee1KR was added as substrate 15 min later. The reaction mixtures were incubated at 37°C for 2 h and were further examined by immunoblotting.
(§1) Immunoblotting followed by in vitro ubiquitination assay was performed using anti-human Wee1A [30]. Immunoblotting in the analysis of protein degradation was performed using anti-phospho-β-catenin (Ser33/37/Thr41) antibody (1:1000, Cell Signaling Technology, Danvers, MA, USA), anti-phospho-IκBα (Ser32) (14D4), Rabbit mAb (1:1000, Cell Signaling Technology), anti-β-catenin (D10A8) (1:1000, Cell Signaling Technology), anti-IκBα antibody (1:1000, Cell Signaling Technology), and Goat polyclonal anti-rabbit IgG antibody (1:5000, Proteintech, Am Klopferspitz, Planegg-Martinsried, Germany). The transferred membrane was incubated with specific antibody, then detected using Super Signal West Pico chemiluminescent substrate (Thermo Fisher Scientific) and FUSION SOLO S (VILBER LOURMAT/MS equipment, Zi Sud torcy, Marne-la-vallee, France). The quantification of immunoblotting results was performed using ImageJ software.

[1] = tested on: TCF transcription in HeLa cells; assay: TOP/FOP-Flash luciferase reporter assay (TCF transcription activity); assay type: cell-based; conditions: 24 h with compound
Procedure: HeLa cells were seeded on 96-well plates. Subsequently, TCF and NF-κB transcription activity was examined by the luciferase assay system. T-cell Factor (TCF) transcription activity was assessed by TOP/FOP-Flash luciferase reporter assay, using a pRL-SV40 vector as an internal control. TOP FLASH contains three […] and a firefly luciferase reporter with a minimal promoter and an upstream of the luciferase reporter gene. FOP FLASH is similar to TOP reporter; however, it has three mutated TCF-binding sites and is used as a negative control. The average ratio of TOP to renilla luciferase divided by FOP was used as TCF activity. TOP flash (Sigma-Aldrich, Temecula, CA, USA) or FOP FLASH reporter plasmids (Sigma-Aldrich) and pRL-sv40 renilla luciferase reporter (Promega) were co-transfected into HeLa cells using Lipofectamine 3000 reagent kit (Thermo Fisher Scientific). Furthermore, 24 h after transfection, cells were cultured with the compounds of different dilutions for another 24 h. The cells were lysed, and the luminescence was measured using the Luciferase Assay System (Promega). A minimum of three samples were taken for each sample.

[2] = tested on: β-catenin and phosphorylated β-catenin in HeLa cells; assay: Analysis of β-catenin degradation by immunoblotting in HeLa cells; assay type: cell-based; conditions: 3 h with compound
Procedure: as §1
For examining the effect on degradation of β-catenin, HeLa cells were cultured in the presence or absence of the compound for 3 h. The cell extracts were examined by immunoblotting using antibodies against β-catenin and phosphorylated β-catenin (p-β-catenin).

[3] = tested on: NF-κB transcription activity in HeLa cells; assay: NF-κB luciferase reporter assay (pGL-4.32), TNF-α induced; assay type: cell-based; conditions: for TNF-α induced NF-κB activation of transcription: 24 h compound then TNF-α 4 h; for NF-κB transcription, % of that of the control group (DMSO, TNF-α): 20 μM
Procedure: For NF-κB transcription activity, PGL-4.32 contains five copies of the NF-κB response element, which is responsible for the transcription of the luciferase reporter gene, with pRL-SV40 as the internal control. NF-κB transcription activity was determined by firefly luciferase expression and normalized by renilla luciferase level. pGL-4.32 reporter plasmids (Promega) and pRL-sv40 renilla luciferase reporter (Promega) were co-transfected into HeLa cells using Lipofectamine 3000 reagent kit. Subsequently, 24 h after transfection, cells were cultured with the compounds of different dilutions for another 24 h. Furthermore, TNF-α was added, and the plates were cultured for another 4 h. The cells were lysed, and the luminescence was measured using the Luciferase Assay System. A minimum of three samples were taken for each sample.

HeLa cells = assay: Cytotoxicity / cell death; assay type: cell-based; conditions: data not shown
mAG-β-TrCP1 = target: T1, mAG-β-TrCP1 (Homo sapiens, UniProt Q9Y297); assay: High-throughput screening system for β-TrCP ligands (mAG-β-TrCP1 binding to plate-fixed C-IκB-PP15); conditions: serially diluted free phosphopeptide in cell lysate
T1 construct: made in house; host or cells: Express SF+ insect cells (baculovirus, pFASTBacI); crude lysate used
T1 sequence (Q9Y297 1-605): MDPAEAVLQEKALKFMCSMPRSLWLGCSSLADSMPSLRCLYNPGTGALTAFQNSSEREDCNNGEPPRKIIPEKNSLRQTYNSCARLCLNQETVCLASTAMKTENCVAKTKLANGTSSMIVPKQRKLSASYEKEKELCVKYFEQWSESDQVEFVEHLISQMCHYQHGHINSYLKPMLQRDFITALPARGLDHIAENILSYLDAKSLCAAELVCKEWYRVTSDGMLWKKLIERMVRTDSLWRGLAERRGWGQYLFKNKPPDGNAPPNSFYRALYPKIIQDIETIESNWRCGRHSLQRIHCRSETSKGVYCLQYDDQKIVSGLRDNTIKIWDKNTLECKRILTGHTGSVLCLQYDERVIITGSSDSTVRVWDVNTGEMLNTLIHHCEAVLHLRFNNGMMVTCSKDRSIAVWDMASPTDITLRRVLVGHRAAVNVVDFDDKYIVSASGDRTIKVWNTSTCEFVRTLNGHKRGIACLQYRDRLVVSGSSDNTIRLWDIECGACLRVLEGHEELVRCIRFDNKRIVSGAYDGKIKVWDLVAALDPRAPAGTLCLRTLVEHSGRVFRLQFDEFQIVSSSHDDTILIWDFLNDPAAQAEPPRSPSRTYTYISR
Source text: NotI digested mAG-β-TrCP1 (mAG, N-terminally fused fluorescent monomeric Azami Green) fragment was inserted to NotI pFASTBacI (Gibco) site for obtaining recombinant plasmid containing mAG-β-TrCP1. The recombinant plasmids were then transformed into DH10Bac cells and the obtained recombinant bacmids were transfected into Express SF+ Cells. Phosphopeptides C-IkB pp15 with target sequences (seq: CDDRHDpSGLDpSMKDEE) for β-TrCP-dependent binding or its negative control C-IkB s15 (seq: CDDRHDSGLDSMKDEE) were used in the establishment of the high-throughput system. These phosphopeptides, and their non-phosphorylated derivatives, were chemically synthesized at RIKEN CBS, Research Resources Center, Japan. C-IkB pp15 or C-IkB s15 (100 μL/well of 10 μM solution) were covalently attached to maleimide-activated 96-well plates (Themo Fisher Scientific, Waltham, MA, USA) overnight. […] After washing, bound mAG-β-TrCP1 was quantitated using spectrofluorometry (excitation, 470 nm; emission, 525 nm).
C-IκB-PP15 is a phosphopeptide whose sequence is derived from IκB that is known to bind to β-TrCP. […] After enough binding and washing, the bound mAG-β-TrCP1 was quantitated using spectrofluorometry. […] When the small molecules compete with the phosphopeptides for mAG-β-TrCP1 binding, there was less plate fluorescence (Fig. 1A).

[4] = tested on: IκBα and phosphorylated IκBα in HeLa cells; assay: TNF-α induced IκBα degradation by immunoblotting in HeLa cells; assay type: cell-based; conditions: 30 min compound then TNF-α 40 ng/mL 5 min
Procedure: as §1
For examining the effect on degradation of IκBα, HeLa cells were cultured in the presence or absence of the compound for 30 min. TNF-α (Cat. No. TNA-H4211, Acro Biosystems, Newark, DE, USA) was added (40 ng/mL) and incubated for another 5 min. The cell extracts were analyzed using immunoblotting using antibodies against IκBα and phosphorylated IκBα (p-IκBα).

Sequence of SCF^β-TrCP1 (P63208 whole entry partner, one chain of several): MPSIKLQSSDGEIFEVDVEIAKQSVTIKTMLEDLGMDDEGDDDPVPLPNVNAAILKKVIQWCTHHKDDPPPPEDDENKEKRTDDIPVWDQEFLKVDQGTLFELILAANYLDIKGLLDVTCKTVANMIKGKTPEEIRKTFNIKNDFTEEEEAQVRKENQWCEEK
Sequence of SCF^β-TrCP1 (Q13616 whole entry partner, one chain of several): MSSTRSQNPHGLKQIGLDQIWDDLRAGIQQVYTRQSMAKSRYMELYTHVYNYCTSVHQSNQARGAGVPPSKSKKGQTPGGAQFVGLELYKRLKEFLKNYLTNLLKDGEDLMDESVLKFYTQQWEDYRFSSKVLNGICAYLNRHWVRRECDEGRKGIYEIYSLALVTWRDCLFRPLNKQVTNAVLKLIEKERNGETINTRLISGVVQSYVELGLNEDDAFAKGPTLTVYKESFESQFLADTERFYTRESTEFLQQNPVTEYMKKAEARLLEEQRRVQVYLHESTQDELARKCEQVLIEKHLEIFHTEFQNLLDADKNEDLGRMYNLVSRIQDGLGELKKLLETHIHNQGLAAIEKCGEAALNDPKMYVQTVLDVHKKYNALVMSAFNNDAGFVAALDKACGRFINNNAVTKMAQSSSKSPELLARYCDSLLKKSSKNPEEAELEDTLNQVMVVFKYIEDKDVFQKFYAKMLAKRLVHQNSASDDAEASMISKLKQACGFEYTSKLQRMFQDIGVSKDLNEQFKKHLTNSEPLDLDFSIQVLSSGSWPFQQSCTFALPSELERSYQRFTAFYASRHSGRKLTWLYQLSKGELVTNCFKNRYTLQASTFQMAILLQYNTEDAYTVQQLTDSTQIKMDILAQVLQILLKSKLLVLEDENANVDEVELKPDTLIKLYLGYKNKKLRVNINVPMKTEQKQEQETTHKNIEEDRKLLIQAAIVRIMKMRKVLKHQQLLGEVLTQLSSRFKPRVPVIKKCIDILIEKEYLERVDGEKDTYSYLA
Sequence of SCF^β-TrCP1 (P62877 whole entry partner, one chain of several): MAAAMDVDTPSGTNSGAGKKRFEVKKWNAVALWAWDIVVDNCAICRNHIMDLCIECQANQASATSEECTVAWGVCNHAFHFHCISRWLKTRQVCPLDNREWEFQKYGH

## O=C(O)c1ccc(-c2ccc(/C=C3\C(=O)N(c4ccc(C(=O)O)cc4)N=C3C(F)(F)F)o2)cc1 [NPL72038-01]
SCF^β-TrCP1
  IC50: 7 µM
[1]
  TCF transcription: did not cause a high increase
[2]
  level of phosphorylated β-catenin (p-β-catenin): promoted the accumulation
  level of β-catenin: did not significantly affect

## CC1=NN(c2ccc(C(=O)O)cc2)C(=O)/C1=C\c1ccc(-c2ccc3c(c2)C(=O)N(C(C)C)C3=O)o1 [NPL42040-01]
SCF^β-TrCP1
  IC50: 13 µM
[3]
  TNF-α induced NF-κB activation of transcription: reduced NF-κB activation dose-dependently
HeLa cells
  non-specific cytotoxicity: cytotoxicity only at high concentration

## COC(=O)c1ccc(-c2ccc(/C=C3\C(=O)N(c4cccc(C(=O)O)c4)N=C3C(F)(F)F)o2)cc1 [NPL62039-01]
SCF^β-TrCP1
  IC50: 9 µM
[1]
  TCF transcription: did not cause a high increase
[2]
  level of phosphorylated β-catenin (p-β-catenin): promoted the accumulation
  level of β-catenin: did not significantly affect

## CDDRHDpSGLDpSMKDEE (CDDRHD[pS]GLD[pS]MKDEE) [C-IκB-PP15]
mAG-β-TrCP1
  binding of mAG-β-TrCP1 to plate-fixed phosphopeptide in presence of free phosphopeptide: concentration-dependent binding decrease

## CC1=NN(c2ccc(C(=O)O)cc2)C(=O)/C1=C\c1ccc(-c2cc(C)c(C)cc2[N+](=O)[O-])o1 [NPL62020-01]
SCF^β-TrCP1
  IC50: 30 µM
[3]
  NF-κB transcription, % of that of the control group (DMSO, TNF-α): approximately 20%
  TNF-α induced NF-κB activation of transcription: reduced NF-κB activation dose-dependently
HeLa cells
  non-specific cytotoxicity: cytotoxicity only at high concentration

## O=C(O)c1ccc(N2N=C(Cc3ccccc3)/C(=C/c3ccc(-c4ccccc4F)o3)C2=O)cc1 [GS143, reference compound]
[4]
  level of IκBα after TNF-α: caused the inhibition of the degradation
  level of phosphorylated IκBα (p-IκBα) after TNF-α: caused the inhibition of the degradation
SCF^β-TrCP1
  IC50: 25 µM
[1]
  TCF transcription: did not affect TCF transcription
[3]
  NF-κB transcription, % of that of the control group (DMSO, TNF-α): ~ 40%
[2]
  level of phosphorylated β-catenin (p-β-catenin): did not affect
  level of β-catenin: did not affect

## CC(C)C[C@@H](C=O)NC(=O)[C@H](CC(C)C)NC(=O)[C@H](CC(C)C)NC(=O)OCc1ccccc1 [MG132, reference compound] (Cbz-Leu-Leu-Leu-aldehyde)
[4]
  level of IκBα after TNF-α: caused the inhibition of the degradation
  level of phosphorylated IκBα (p-IκBα) after TNF-α: caused the inhibition of the degradation
[2]
  level of phosphorylated β-catenin (p-β-catenin): caused the accumulation
  level of β-catenin: caused the accumulation

B1: Wnt3a: molecule that stimulates classic Wnt signaling (protein, UniProt P56704 19-352, looked up)
Protein Wnt-3a: SYPIWWSLAVGPQYSSLGSQPILCASIPGLVPKQLRFCRNYVEIMPSVAEGIKIGIQECQHQFRGRRWNCTTVHDSLAIFGPVLDKATRESAFVHAIASAGVAFAVTRSCAEGTAAICGCSSRHQGSPGKGWKWGGCSEDIEFGGMVSREFADARENRPDARSAMNRHNNEAGRQAIASHMHLKCKCHGLSGSCEVKTCWWSQPDFRAIGDFLKDKYDSASEMVVEKHRESRGWVETLRPRYTYFKVPTERDLVYYEASPNFCEPNPETGSFGTRDRTCNVSSHGIDGCDLLCCGRGHNARAERRREKCRCVFHWCCYVSCQECTRVYDVHTCK
[1]
  TCF transcription: increased

— PMC10398414, “Isolation and characterization of β-transducin repeat-containing protein ligands screened using a high-throughput screening system” (Oncology Research, 2023)
